Laboratory results published in ChEMBL document CHEMBL4507276 (2021).

Columns and labels:
Settings in all cases: Compound concentration 1000.0 nM
[1] = target: Tyrosine-protein kinase Srms (Homo sapiens) (UniProt Q9H3Y6)
[2] = target: Ribosomal protein S6 kinase alpha-3 (Homo sapiens) (UniProt P51812)
[3] = target: T1, Tyrosine-protein kinase receptor TYRO3 (Homo sapiens) (UniProt Q06418)
T1 sequence (whole entry): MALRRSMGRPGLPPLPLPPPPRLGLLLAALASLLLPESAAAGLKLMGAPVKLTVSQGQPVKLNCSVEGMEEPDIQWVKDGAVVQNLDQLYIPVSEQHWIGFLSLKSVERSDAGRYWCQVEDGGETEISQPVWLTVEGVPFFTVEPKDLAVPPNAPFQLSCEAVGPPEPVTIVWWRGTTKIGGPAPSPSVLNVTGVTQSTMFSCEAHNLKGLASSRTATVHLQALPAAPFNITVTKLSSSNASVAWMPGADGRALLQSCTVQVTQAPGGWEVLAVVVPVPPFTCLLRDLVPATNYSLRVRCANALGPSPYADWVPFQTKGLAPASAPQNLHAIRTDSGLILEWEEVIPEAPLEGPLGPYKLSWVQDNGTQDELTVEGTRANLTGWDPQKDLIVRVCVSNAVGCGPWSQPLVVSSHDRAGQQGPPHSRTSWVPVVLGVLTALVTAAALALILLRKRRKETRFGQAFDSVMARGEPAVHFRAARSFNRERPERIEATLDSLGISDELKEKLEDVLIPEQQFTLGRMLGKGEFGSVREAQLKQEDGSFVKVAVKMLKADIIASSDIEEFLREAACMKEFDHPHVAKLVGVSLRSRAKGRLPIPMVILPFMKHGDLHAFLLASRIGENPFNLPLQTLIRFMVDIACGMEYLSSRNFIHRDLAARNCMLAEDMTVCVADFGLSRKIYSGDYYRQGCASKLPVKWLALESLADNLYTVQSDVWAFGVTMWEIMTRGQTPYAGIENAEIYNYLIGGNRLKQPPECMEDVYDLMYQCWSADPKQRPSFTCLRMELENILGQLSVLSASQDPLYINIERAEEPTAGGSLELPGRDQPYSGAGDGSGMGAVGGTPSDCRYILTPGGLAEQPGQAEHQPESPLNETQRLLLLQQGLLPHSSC

[4] = test system: Mast/stem cell growth factor receptor Kit (Homo sapiens), P10721 [A829P]
Mast/stem cell growth factor receptor Kit (Homo sapiens), P10721 [A829P], sequence (P10721 whole entry A829P): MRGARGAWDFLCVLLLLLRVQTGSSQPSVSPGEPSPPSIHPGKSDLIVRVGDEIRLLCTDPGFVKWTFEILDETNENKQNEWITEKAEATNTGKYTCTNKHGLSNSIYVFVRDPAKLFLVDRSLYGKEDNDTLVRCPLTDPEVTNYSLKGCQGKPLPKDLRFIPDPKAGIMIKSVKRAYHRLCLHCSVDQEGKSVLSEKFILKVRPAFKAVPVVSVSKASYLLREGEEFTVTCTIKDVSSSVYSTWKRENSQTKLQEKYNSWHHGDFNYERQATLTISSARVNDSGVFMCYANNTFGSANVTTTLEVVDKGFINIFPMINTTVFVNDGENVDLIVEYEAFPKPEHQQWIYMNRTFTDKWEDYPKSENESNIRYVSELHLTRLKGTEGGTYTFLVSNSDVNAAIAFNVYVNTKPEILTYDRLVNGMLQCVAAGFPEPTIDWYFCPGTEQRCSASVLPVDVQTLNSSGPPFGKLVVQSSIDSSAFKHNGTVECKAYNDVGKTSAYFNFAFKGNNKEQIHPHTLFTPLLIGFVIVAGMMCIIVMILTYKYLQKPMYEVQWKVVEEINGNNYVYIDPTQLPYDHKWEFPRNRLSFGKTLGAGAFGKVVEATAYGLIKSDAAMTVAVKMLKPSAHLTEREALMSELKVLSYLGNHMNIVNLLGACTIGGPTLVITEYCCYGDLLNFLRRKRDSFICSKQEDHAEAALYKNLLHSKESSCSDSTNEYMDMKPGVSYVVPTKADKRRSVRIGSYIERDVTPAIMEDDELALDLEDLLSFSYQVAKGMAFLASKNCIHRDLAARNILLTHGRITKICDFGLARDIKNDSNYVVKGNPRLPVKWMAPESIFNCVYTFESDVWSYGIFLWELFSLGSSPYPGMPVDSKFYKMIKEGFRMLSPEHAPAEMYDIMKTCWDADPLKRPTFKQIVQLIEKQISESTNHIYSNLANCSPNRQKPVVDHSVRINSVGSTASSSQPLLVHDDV

[5] = target: Tyrosine-protein kinase CSK (Homo sapiens) (UniProt P41240)
[6] = target: T2, Mitogen-activated protein kinase 13 (Homo sapiens) (UniProt O15264)
T2 sequence (whole entry): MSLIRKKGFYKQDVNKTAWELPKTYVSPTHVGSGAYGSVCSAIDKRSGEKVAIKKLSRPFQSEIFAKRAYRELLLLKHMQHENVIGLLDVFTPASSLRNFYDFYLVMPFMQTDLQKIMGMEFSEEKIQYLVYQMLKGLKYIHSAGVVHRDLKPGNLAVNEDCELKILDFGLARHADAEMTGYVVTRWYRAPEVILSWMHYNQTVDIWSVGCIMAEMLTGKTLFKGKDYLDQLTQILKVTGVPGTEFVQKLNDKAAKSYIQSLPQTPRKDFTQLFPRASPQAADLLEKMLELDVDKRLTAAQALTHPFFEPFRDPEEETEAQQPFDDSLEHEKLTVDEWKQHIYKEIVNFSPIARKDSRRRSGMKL

[7] = target: Calcium/calmodulin-dependent protein kinase type II subunit beta (Homo sapiens) (UniProt Q13554)
Calcium/calmodulin-dependent protein kinase type II subunit beta (Homo sapiens), sequence (Q13554 whole entry): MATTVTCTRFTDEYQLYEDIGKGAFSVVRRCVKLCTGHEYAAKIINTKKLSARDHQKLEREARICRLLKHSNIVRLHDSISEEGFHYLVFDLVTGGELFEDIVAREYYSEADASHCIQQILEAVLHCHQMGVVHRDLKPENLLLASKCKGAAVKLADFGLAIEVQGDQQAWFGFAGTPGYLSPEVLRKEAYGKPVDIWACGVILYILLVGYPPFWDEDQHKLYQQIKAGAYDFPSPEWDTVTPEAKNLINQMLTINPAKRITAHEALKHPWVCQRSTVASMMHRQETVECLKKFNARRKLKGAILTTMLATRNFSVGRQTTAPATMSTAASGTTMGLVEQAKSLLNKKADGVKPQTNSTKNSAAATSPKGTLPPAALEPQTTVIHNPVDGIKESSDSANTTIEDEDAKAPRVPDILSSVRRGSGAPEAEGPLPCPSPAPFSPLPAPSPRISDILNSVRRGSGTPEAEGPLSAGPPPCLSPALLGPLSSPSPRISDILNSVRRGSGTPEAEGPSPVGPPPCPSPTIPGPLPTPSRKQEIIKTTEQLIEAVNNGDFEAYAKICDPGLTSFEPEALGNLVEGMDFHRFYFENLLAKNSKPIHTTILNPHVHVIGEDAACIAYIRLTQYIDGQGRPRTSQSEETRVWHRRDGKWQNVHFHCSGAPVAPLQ

[8] = target: Serine/threonine-protein kinase/endoribonuclease IRE1 (Homo sapiens) (UniProt O75460)
[9] = target: Calcium/calmodulin-dependent protein kinase kinase 1 (Homo sapiens) (UniProt Q8N5S9)
Calcium/calmodulin-dependent protein kinase kinase 1 (Homo sapiens), sequence (Q8N5S9 whole entry, looked up): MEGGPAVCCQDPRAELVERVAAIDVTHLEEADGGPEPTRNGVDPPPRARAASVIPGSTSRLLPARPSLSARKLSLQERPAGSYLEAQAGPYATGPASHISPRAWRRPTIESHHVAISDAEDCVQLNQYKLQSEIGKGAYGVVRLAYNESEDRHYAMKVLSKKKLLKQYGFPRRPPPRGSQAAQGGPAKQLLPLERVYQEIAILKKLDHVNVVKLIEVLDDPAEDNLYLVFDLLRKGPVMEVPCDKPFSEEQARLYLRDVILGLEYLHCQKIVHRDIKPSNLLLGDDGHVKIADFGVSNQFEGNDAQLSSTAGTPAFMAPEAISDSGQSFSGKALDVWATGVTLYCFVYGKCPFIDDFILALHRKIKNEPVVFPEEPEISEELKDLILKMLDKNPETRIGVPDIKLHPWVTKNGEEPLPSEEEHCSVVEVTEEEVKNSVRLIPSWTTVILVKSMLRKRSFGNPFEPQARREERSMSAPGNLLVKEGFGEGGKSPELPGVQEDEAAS

[10] = target: G protein-coupled receptor kinase 4 (Homo sapiens) (UniProt P32298)
[11] = target: ALK tyrosine kinase receptor (Homo sapiens) (UniProt Q9UM73)
[12] = target: Dual specificity testis-specific protein kinase 1 (Homo sapiens) (UniProt Q15569)
[13] = target: STE20/SPS1-related proline-alanine-rich protein kinase (Homo sapiens) (UniProt Q9UEW8)
[14] = target: T3, Mitogen-activated protein kinase kinase kinase 2 (Homo sapiens) (UniProt Q9Y2U5)
T3 sequence (whole entry): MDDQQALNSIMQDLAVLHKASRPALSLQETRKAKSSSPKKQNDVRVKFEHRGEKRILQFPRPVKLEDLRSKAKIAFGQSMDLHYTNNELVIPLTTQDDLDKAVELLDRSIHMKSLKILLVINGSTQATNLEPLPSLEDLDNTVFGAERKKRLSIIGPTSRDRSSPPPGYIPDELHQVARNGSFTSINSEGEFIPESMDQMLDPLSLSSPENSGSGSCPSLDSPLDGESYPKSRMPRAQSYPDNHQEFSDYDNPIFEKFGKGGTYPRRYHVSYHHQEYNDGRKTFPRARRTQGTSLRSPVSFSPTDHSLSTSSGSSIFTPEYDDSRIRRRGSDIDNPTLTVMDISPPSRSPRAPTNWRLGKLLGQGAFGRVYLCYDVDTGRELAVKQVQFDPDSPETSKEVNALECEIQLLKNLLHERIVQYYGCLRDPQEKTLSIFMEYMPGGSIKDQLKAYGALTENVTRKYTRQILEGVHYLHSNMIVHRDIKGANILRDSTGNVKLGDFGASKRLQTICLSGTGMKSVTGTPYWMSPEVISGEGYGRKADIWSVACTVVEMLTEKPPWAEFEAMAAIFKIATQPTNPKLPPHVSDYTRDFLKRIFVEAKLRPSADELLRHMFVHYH

[15] = target: Focal adhesion kinase 1 (Homo sapiens) (UniProt Q05397)
Focal adhesion kinase 1 (Homo sapiens), sequence (Q05397 2-1052 limits assumed): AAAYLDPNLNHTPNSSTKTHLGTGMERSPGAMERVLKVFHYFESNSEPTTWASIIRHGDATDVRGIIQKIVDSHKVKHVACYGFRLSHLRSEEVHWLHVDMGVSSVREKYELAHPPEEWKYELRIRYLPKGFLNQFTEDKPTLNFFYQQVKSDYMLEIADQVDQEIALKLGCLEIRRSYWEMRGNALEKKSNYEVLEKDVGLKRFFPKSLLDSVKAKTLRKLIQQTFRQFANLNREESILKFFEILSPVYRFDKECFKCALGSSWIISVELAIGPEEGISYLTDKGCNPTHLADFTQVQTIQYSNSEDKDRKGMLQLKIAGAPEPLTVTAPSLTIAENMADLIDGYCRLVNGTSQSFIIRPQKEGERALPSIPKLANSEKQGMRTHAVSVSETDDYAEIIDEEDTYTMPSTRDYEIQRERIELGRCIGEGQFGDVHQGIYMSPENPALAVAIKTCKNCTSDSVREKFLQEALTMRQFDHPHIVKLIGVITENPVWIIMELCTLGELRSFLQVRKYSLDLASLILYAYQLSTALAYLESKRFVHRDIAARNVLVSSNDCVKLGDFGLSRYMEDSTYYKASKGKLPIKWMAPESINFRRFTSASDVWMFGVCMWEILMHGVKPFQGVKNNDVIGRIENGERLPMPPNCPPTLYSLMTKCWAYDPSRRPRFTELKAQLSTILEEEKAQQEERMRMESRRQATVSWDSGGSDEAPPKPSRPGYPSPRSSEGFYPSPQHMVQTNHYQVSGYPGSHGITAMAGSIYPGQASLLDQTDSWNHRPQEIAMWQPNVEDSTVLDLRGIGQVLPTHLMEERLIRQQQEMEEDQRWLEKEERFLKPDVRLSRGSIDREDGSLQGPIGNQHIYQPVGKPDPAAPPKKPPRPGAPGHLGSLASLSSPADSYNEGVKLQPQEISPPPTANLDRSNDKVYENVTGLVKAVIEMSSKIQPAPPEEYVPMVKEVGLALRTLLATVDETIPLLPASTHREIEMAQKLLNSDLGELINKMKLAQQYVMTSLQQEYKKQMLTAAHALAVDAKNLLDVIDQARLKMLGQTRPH

[16] = target: Mitogen-activated protein kinase 10 (Homo sapiens) (UniProt P53779)
Mitogen-activated protein kinase 10 (Homo sapiens), sequence (P53779 whole entry): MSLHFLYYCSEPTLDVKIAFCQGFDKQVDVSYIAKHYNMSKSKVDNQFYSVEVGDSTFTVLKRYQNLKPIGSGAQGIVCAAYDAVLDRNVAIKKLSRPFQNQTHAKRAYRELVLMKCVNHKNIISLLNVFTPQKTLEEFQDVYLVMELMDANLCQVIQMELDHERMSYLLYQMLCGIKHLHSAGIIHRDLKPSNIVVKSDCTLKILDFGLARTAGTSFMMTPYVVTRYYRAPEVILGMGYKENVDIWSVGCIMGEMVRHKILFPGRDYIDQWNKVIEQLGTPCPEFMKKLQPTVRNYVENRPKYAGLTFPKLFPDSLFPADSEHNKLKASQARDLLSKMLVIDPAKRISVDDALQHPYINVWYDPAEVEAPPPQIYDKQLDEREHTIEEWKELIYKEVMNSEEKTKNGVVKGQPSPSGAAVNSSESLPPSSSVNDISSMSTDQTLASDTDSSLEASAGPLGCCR

[17] = target: Mitogen-activated protein kinase kinase kinase 4 (Homo sapiens) (UniProt Q9Y6R4)

Measured: residual activity

Ribosomal protein S6 kinase alpha-3 (Homo sapiens), sequence (P51812 whole entry): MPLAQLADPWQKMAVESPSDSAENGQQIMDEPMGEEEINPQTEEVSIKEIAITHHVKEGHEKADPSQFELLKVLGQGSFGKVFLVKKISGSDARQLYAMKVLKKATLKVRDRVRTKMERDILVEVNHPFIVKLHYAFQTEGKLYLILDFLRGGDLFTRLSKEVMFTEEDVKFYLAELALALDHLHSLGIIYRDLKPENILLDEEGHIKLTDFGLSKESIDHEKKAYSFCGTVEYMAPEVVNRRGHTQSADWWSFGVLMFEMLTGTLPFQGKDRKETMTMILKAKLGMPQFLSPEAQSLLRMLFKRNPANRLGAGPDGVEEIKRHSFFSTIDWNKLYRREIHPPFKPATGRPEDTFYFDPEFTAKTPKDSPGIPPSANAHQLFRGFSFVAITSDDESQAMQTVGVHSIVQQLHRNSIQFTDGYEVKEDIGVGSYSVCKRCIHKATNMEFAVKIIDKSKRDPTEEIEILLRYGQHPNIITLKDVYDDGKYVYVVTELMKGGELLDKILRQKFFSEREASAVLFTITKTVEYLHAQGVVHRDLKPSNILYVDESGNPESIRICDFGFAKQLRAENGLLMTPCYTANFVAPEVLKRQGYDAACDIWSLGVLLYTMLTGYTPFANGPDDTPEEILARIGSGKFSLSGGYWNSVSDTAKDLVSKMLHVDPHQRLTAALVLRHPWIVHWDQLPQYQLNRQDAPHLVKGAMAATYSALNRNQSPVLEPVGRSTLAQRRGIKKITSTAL
Tyrosine-protein kinase Srms (Homo sapiens), sequence (Q9H3Y6 whole entry): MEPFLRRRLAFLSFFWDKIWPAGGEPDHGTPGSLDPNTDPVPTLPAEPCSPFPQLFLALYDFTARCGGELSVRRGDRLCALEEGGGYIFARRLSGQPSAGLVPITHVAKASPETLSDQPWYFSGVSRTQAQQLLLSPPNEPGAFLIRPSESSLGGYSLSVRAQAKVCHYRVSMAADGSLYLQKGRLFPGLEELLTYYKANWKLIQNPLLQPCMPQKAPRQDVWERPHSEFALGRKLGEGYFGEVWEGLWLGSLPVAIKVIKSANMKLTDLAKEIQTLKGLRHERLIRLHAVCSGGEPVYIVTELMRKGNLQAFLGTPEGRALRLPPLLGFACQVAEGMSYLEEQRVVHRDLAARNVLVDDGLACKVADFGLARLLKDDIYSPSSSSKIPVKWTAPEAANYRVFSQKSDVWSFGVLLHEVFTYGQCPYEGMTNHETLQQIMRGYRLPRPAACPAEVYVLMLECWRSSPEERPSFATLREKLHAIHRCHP

CN(C)C(=O)Cn1cc(-c2nc(C3(c4ccc(-c5cnc(N)nc5)cc4)CC3)no2)cn1 [BI 0153]
inactive: [1] 73% | [2] 85% | [3] 83% | [4] 93% | [5] 100% | [6] 91% | [7] 94% | [8] 69% | [9] 100% | [10] 100% | [11] 77% | [12] 94% | [13] 100% | [14] 93% | [15] 100% | [16] 93% | [17] 92%

CN(C)C(=O)Cn1cc(-c2nc([C@@](C)(c3ccc(-c4cnc(N)nc4)cc3)C3CC3)no2)cn1 [BI 665915]
inactive: [1] 93% | [2] 100% | [3] 100% | [4] 80% | [5] 100% | [6] 93% | [7] 96% | [8] 86% | [9] 100% | [10] 86% | [11] 85% | [12] 90% | [13] 81% | [14] 94% | [15] 100% | [16] 94% | [17] 91%
